These results are taken from patent US7544467B2, “Method for the identification of compounds capable of activating latent human immunodeficiency virus (HIV)” (The J. David Gladstone Institutes, priority 2001, dated 2009).

The test system of experiment [1] is latent HIV-based retroviral vector in cell line. Kind of experiment: Screen of small molecule library on cell line containing a latent HIV-based retroviral vector, GFP expression. The settings on record: different concentrations; FIG. 7. From the text:
We screened a library of 6,000 small molecules (library purchased from Chembridge, San Diego) using one of the cell lines containing a latent HIV-based retroviral vector. Viral expression was monitored by GFP expression, as described above. […] The results of a typical induction experiment in which we measured CFP expression in response to different concentrations of the two small molecules (Hit 1 and Hit2) are shown in FIG. 7. The structures of three representative active agents are shown below.

The test system of experiment [2] is latent HIV promoter (LTR-Tat-IRES-GFP vector) in Jurkat-derived cells. Kind of experiment: Reactivation of latent LTR-Tat-IRES-GFP vector in Jurkat cells/clones, GFP by flow cytometry. It is filed as cell-based. The settings on record: for ability to reactivate latent HIV expression (GFP-positive cells and mean fluorescence intensity): clones 82, A1, A7, A10, 10 nM TPA, 10 ng/ml TNF-α, 5 μg/ml PHA, 5 μg/ml anti-CD3, 400 nM TSA, 5 μM aza-dC 48 h. As for the experimental part: To obtain a random library of clones containing the vector LTR-Tat-IRES-GFP integrated, Jurkat cells were infected at an MOI (multiplicity of infection) of 0.1 followed by serial dilution and plating in 96-well plates. Individual clones obtained after 3 weeks were analyzed by flow cytometry for GFP expression. For the purification of latently infected cells, Jurkat cells were infected with the LTR-Tat-IRES-GFP viral stock at an MOI of 0.1 and kept in culture for at least 96 h. GFP-negative (GFP^−) and GFP-positive (GFP^+) cells were separated by fluorescence activated cell sorting (FACS) and further cultured. One week later, GFP^− cells were incubated with 10 nM TPA or 10 ng/ml TNF-α for 17 h.
Jurkat cells were grown in RPMI 1640 medium (Mediatech Cellgro, Herndon, Va.) supplemented with 10% fetal bovine serum, 100 U/ml of penicillin, 100 μg/ml of streptomycin, and 2 mM L-glutamine at 37° C. under a 95% air/5% CO2 atmosphere. Peripheral blood mononuclear cells (PBMCs) were cultivated in the same medium supplemented with 100 U/ml human interleukin (hIL)-2 and were phytohemagglutinin (PHA)-stimulated (5 μg/ml) once every two weeks. 293T cells were grown under the same conditions as Jurkat cells in Dulbecco's modification of Eagle's medium (Mediatech Cellgro, Herndon, Va.). 293T cells were routinely transfected with calcium phosphate. Jurkat cells (10^7 cells/0.4 ml serum-free medium) were electroporated in 0.4-cm gap cuvettes at 250 V and […] (Gene Pulser II, Biorad, Hercules, Calif.). Plasmid DNA for transfections was purified with the Qiagen Plasmid Maxi kit, followed by phenol extraction and ethanol precipitation. To test the HIV promoter inducibility, Jurkat-derived clones were incubated for 17 h with 10 nM tetradecanoyl phorbol acetate (TPA), 10 ng/ml TNF-α, 5 μg/ml PHA, 1 μM ionomycin, 5 μg/ml anti-CD3 antibody, 400 nM Trichostatin A (TSA). Incubations with 5 μM aza-dC lasted for 48 h.
(§1) Cells were washed in PBS and resuspended in PBS containing 1% paraformaldehyde. GFP fluorescence was measured with a FACScalibur machine (Becton Dickinson, San Jose, Calif.). A two narameter analysis to distinguish GFP-derived fluorescence from background fluorescence was used: CFP was measured in FL1 and cellular autofluorescence was monitored in FL2. Electronic compensation was applied during analysis. Analysis was gated on live cells according to forward and side scatter. A gate (R2) containing GFP-positive cells was drawn compared to an uninfected control, and the data shown refer to the percentage of cells in R2 or mean fluorescence intensity (MFI) of those cells. Results shown throughout the manuscript are representative three independent experiments, except when libraries of clones were analyzed. Cell sorting was carried out with a FACSVantage (Becton Dickinson, San Jose, Calif.).
For orientation: Flow cytometry measures light scatter and fluorescence of single cells or particles in a stream.

Experiment [3] relates to HIV transcription in latent cell lines. The experiment in a line: HIV-specific mRNA measurement by TaqMan PCR in latent cell lines. In kind it is cell-based. Conditions: clone H2; +TNF-α. On the procedure:
RNA was isolated using TRIzol (Invitrogen) followed by digestion with RQ1 DNase (Promega). First strand cDNA was synthesized using Superscript II (Invitrogen). Taqman PCR was performed on an ABIprism 7700 detector using the following primer/probe set: primer 1: 5′-[…]-3′ (SEQ ID NO:21); primer 2: 5′-[…]-3′ (SEQ ID NO:22); probe 5′-CTGGTAACTAGAGATCCC-3′ (SEQ LD NO:23). The GAPDH primer/probe set was purchased from Applied Biosystems.
FIG. 1A-C. Enrichment and purification of HIV-latently infected cells by FACS. (A) A schematic representation of our enrichment protocol is shown. See text for details. The percentage of GFP-positive cells obtained after infection (4%) or after TNF-α treatment of GFP-cells (0.06%) is shown. Similar data were obtained with TPA. (B) Clonal cell lines isolated using the procedure described above were analyzed for CFP expression under basal and stimulated conditions (24 hr treatment with TNF-α). (C) mRNA levels were measured for HIV and for GAPDH using TaqMan PCR in untreated and TNF-α-treated cell lines. Results are expressed as a percentage of mRNA levels measured in Jurkat cells acutely infected with HIVNL4-3 (day 6 post-infection). Clone A72 is infected with an LTR-CFP construct (Jordan et al. (2001, supra), clone H2 is infected with the LTR-Tat-IRS-GFP vector while clones F11 and G10 are infected with HIV-R7/E^−/GFP.
(In general: Real-time PCR tracks product formation cycle by cycle.)

Experiment [4] relates to latent full-length HIV provirus (HIV-R7/E-/GFP) in Jurkat clones. The experiment in a line: HIV-specific p24 in culture supernatants of latent HIV-R7/E-/GFP clones. It is filed as cell-based. Conditions: culture supernatant; for p24 (pg/ml): + TNF-α. The text has this: When the culture supernatants of the same clones were examined for HIV-specific p24 expression, no or low picogram amounts could be detected under basal conditions (Table I).

For experiment [5], the system named is latent full-length HIV provirus (HIV-R7/E-/GFP) in Jurkat cells. The experiment in a line: GFP expression in Jurkat cells/clones latently infected with full-length HIV-R7/E-/GFP, flow cytometry. In kind it is cell-based. The settings on record: for GFP Signal (MFI) / GFP-Positive (%): + TNF-α. On the procedure:
as §1
The HIV molecular clone (HIV-R7/E^−1/GFP) was constructed by introducing a frameshift mutation in the env gene (by filling-in NdeI site with T4 polymerase) in the backbone of HIV-R7/3/GCF. Bieniasz and Cullen (2000) J. Virol. 74:9868-9877.
To confirm that HIV Latency can be established in the context of a full length provirus, we used a recombinant HIV molecular clone containing the GFP open reading frame in place of the Nef gene (Bieniasz and Cullen (2000) J. Virol. 74:9868-9877) (HIV-R7/E^−/GFP) (FIG. 5A). To restrict our analysis to a single infection cycle, the env gene was suppressed by introduction of a frameshift mutation. […]. We infected a culture of the lymphocytic cell line Jurkat with viral particles containing this HIV genome and used differential fluorescence-activated cell sorting based on GFP expression to isolate GFP-negative cells by FACS 4 days after infection (FIG. 5B). Based on our previous experiments, we predicted that this population harbored both uninfected cells and cells with transcriptionally silenced proviruses. To activate HIV expression, we treated this population with TNF-α and observed that a small fraction of the cell population (1.9%) became positive. These activated cells were purified by FACS based on GFP expression levels (FIG. 5B). These cells were both grown as a group and individually sorted for further characterization.
FIG. 5. Establishment of latently infected cell lines with a full-length HIV provirus. (A) genome organization of a molecular clone of HIV encoding GFP and containing a frameshift mutation in env. (B) Schematic representation of protocol for enrichment of latently-infected cells after infection of Jurkat cells with HIV-R7/E^−/GFP) (see text for detail). (C) Clonal cell lines isolated using the procedure described above were analyzed for GFP expression under basal and stimulated conditions (24 hr treatment with TNF-α).

Experiment [6] has as its system latent full-length HIV provirus (HIV-R7/E-/GFP) in Jurkat clones. The experiment in a line: Western blotting of HIV-specific proteins in latent HIV-R7/E-/GFP clones. It is filed as cell-based. Conditions: several clones; particularly gag p55 precursor. The text has this: Levels of viral mRNA after activation were similar to those measured after a productive HIV infection (compare clones F11 and G10 with NL4-3, FIG. 1C).
For orientation: A western blot detects proteins with antibodies after separation by electrophoresis.

On to `CC1(C)Cc2ccccc2C(NNC(=O)c2ccccn2)=N1` [Hit2], for which, in experiment [1], the “induction of HIV expression as measured by increased GFP expression” value is “reproducibly lead to an induction of HIV expression”.
Take `COc1cc(/C=N/NC(=O)c2cc(-c3ccccc3)n[nH]2)cc(OC)c1O` [Hit 1]: in experiment [1], the “induction of HIV expression as measured by increased GFP expression” value is listed as “reproducibly lead to an induction of HIV expression”.
For the compound `CC(/C=C/C(=O)NO)=C\[C@@H](C)C(=O)c1ccc(N(C)C)cc1` [Trichostatin A], the “ability to reactivate latent HIV expression (GFP-positive cells and mean fluorescence intensity)” value (“ability” below) in experiment [2] was “activated expression but to a lesser extent than NT-κB activators and in only some cell lines”.
Same read-out and setting: next, `Nc1ncn([C@H]2C[C@H](O)[C@@H](CO)O2)c(=O)n1` [aza-dC, 5-axa-2-deoxycytidine]: “little effect”; phytohemagglutinin [PHA]: “induced HIV expression”.
On to tetradecanoyl phorbol acetate [TPA], for which the “GFP expression of individual latent clones after treatment” value in experiment [2] (clonal cell lines 4 weeks after isolation) is reported as “all clones were activated”. Besides, the “ability” value in experiment [2] is on record as “strongest inducer tested”.
On to tumor necrosis factor alpha [TNF-α], for which the “HIV mRNA levels, activated versus basal conditions” value in experiment [3] is “activation of HIV transcription”. Also, the “p24 (pg/ml)” value in experiment [4] (Clone 6.3) is reported as 10,100 ± 4,573 pg/ml; in experiment [4] (Clone 8.4) it was 32,967 ± 10,537 pg/ml; in experiment [4] (Clone 9.2), 41,067 ± 9,100 pg/ml; in experiment [4] (Clone 10.6) it was 85,500 ± 5,981 pg/ml; in experiment [4] (Clone 15.4), 6,066 ± 1,960 pg/ml. The “increase in p24 measurement versus basal conditions” value in experiment [4] (several representative clones) was “greater than a thousand-fold increase”. For the same compound, the “GFP Signal (MFI)” value worked out at 135 ± 43 MFI in experiment [5] (Clone 6.3); 488 ± 74 MFI in experiment [5] (Clone 8.4); 522 ± 61 MFI in experiment [5] (Clone 9.2); 645 ± 45 MFI in experiment [5] (Clone 10.6); 188 ± 34 MFI in experiment [5] (Clone 15.4). Moreover, the “GFP-Positive (%)” value turned out to be 27 ± 9% in experiment [5] (Clone 6.3); 77 ± 6% in experiment [5] (Clone 8.4); 75 ± 7% in experiment [5] (Clone 9.2); 96 ± 1% in experiment [5] (Clone 10.6); 46 ± 6% in experiment [5] (Clone 15.4). Besides, the “fraction of the cell population that became GFP positive” value in experiment [5] (Jurkat infected with HIV-R7/E-/GFP, sorted GFP-negative population) turned out to be 1.9%. Also, the “HIV expression (fraction of GFP positive cells and mean fluorescence intensity) in individual clones” value in experiment [5] (individual HIV-R7/E-/GFP clones) was “HIV expression was increased in all clones”. Moreover, in experiment [6], the “HIV protein expression by western blotting” value is given as “dramatic increase in HIV protein expression”. The “ability” value in experiment [2] is on record as “induced HIV expression”.
